Patent US12723063B2, “GIPR-agonist compounds” (Eli Lilly and Company, priority 2019, dated 2026)

Tests used:
[1] = biological target: T1, human GLP-1 receptor (GLP-1R) (Homo sapiens, UniProt P43220); assay: cAMP functional assay (HTRF) in HEK293 cells in presence of 0.1% casein; type: cell-based; details: HEK293 cells expressing human GLP-1R, geometric mean, read-out: hGLP1R cAMP Rel EC50 nM (SEM, n)
T1 construct: expressed in transfected cells; host or cells: HEK293
Procedure: Each receptor over-expressing cell line (20 μl) is treated with the test peptide in DMEM (Gibco Cat #31053) supplemented with 0.1% Casein (Sigma Cat #C4765), 250 μM IBMX, 1× GlutaMAX™ (Gibco Cat #35050), and 20 mM HEPES (HyClone Cat #SH30237.01) in a 20 μl assay volume. After incubating for 60 minutes at room temperature, the resulting increase in intracellular CAMP is quantitatively determined using the CisBio CAMP Dynamic 2 HTRF Assay Kit (62AM4PEJ). The Lysis buffer containing cAMP-d2 conjugate (20 μl) and the antibody anti-cAMP-Eu3+-Cryptate (20 μl) are then added to determine the cAMP level. After incubating 60 minutes at room temperature, HTRF signal is detected with an Envision 2104 plate reader (PerkinElmer). Fluorescent emission at 620 nm and at 665 nm is measured and the ratio between 620 nm and at 665 nm is calculated and then are converted to nM cAMP per well using a cAMP standard curve. Dose response curves of compounds are plotted as the percentage of stimulation normalized to minimum (buffer only) and maximum (maximum concentration of each control ligand) values and analyzed using a four parameter non-linear regression fit with a variable slope (Genedata Screener 13). EC50 is the concentration of compound causing half-maximal simulation in a dose response curve. A relative EC50 value is derived by non-linear regression analysis using the percent maximal response vs, the concentration of peptide added, fitted to a four-parameter logistic equation.
Intracellular cAMP levels are determined by extrapolation using a standard curve. Dose response curves of compounds are plotted as the percentage of stimulation normalized to minimum (buffer only) and maximum (maximum concentration of each control ligand) values and analyzed using a four-parameter non-linear regression fit with a variable slope (Genedata Screener 13). EC50 is the concentration of compound causing half-maximal simulation in a dose response curve. Each relative EC50 value for the geometric mean calculation is determined from a curve fitting.
Concentration response curves of compounds are plotted as the percentage of stimulation normalized to minimum (buffer only) and maximum (maximum concentration of each control ligand) values and analyzed using a four-parameter non-linear regression fit with a variable slope (Genedata Screener 13). EC50 is the concentration of compound causing half-maximal simulation in a dose response curve. […] The standard error of the mean is reported:
[formula] • The log transform accounts for the EC50 values falling on a multiplicative, rather than an arithmetic scale.
For illustration, as shown by Example 1, the peptide is tested in 8 runs of the hGIPR CAMP assay. […] Accordingly, each Example will use the geometric mean of those values to normalize the Example assay runs.

human GIPR = biological target: T2, human GIPR (Homo sapiens, UniProt P48546); assay: [125I]-GIP binding, SPA with WGA beads, 0.1% bacitracin; details: geometric mean, read-out: hGIPR Ki
T2 construct: expressed in transfected cells; crude membranes
T2 sequence (P48546 22-466): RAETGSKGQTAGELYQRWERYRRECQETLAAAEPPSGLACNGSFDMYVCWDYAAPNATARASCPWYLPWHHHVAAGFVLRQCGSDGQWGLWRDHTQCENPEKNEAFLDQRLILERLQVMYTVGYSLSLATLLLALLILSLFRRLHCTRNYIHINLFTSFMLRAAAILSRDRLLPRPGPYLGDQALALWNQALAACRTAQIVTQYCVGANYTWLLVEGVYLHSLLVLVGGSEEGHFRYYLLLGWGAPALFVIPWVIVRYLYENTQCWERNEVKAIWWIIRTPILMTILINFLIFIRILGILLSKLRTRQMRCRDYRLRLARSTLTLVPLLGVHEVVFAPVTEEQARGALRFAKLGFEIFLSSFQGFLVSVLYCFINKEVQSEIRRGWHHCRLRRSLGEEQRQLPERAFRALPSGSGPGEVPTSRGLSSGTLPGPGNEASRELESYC
Procedure: Stably transfected cell lines are prepared by subcloning receptor cDNA into a pcDNA3 expression plasmid and transfected into human embryonic kidney (HEK) 293 (hGcgR and hGLP-1R) or Chinese Hamster Ovary (CHO) (hGIPR) cells followed by selection with Geneticin (hGLP-1R and hGIPR) or hygromycin B (hGcgR).
Two methods are used for the preparation of crude cell membranes.
Method 1: Frozen cell pellets are lysed on ice in hypotonic buffer containing 50 mM Tris HCl, pH 7.5, and Roche Complete™ Protease Inhibitors with EDTA. The cell suspension is disrupted using a glass Potter-Elvehjem homogenizer fitted with a Teflon® pestle for 25 strokes. The homogenate is centrifuged at 4° C. at 1100× g for 10 minutes. The supernatant is collected and stored on ice while the pellets are resuspended in homogenization buffer and rehomogenized as described above. The homogenate is centrifuged at 1100× g for 10 minutes. The second supernatant is combined with the first supernatant and centrifuged at 35000× g for 1 hour at 4° C. The resulting membrane pellet is resuspended in homogenization buffer containing protease inhibitors at approximately 1 to 3 mg/mL, quick frozen in liquid nitrogen and stored as aliquots in a −80° C. freezer until use.
Method 2: Frozen cell pellets are lysed on ice in hypotonic buffer containing 50 mM Tris HCl, pH 7.5, 1 mM MgCl2, Roche Complete™ EDTA-free Protease Inhibitors and 25 units/mL DNAse I (Invitrogen). The cell suspension is disrupted using a glass Potter-Elvehjem homogenizer fitted with a Teflon® pestle for 20 to 25 strokes. The homogenate is centrifuged at 4° C. at 1800× g for 15 minutes. The supernatant is collected and stored on ice while the pellets are resuspended in homogenization buffer (without DNAse I) and rehomogenized as described above. The homogenate is centrifuged at 1800× g for 15 minutes. The second supernatant is combined with the first supernatant and centrifuged an additional time at 1800× g for 15 minutes. The overall supernatant is then centrifuged at 25000× g for 30 minutes at 4° C. The resulting membrane pellet is resuspended in homogenization buffer (without DNAse I) containing protease inhibitors at approximately 1 to 3 mg/mL and stored as aliquots in a −80° C. freezer until use.
The binding buffer contains 25 mM HEPES, pH 7.4, 2.5 mM CaCl2), 1 mM MgCl2, 0.1% (w/v) bacitracin, 0.003% (w/v) TWEEN®-20, and Roche Complete™ Protease Inhibitors without EDTA. […] Plates are sealed and mixed on a plate shaker (setting 6) for 1 minute and read with a PerkinElmer Trilux MicroBeta® scintillation counter after 2.5 to 12 hours of incubation/settling time at room temperature.
Data are analyzed using four-parameter (curve maximum, curve minimum, IC50, Hill slope) nonlinear regression routines (Genedata Screener, version 12.0.4, Genedata AG, Basal, Switzerland). […] Values for Ki are reported as the geometric mean, with error expressed as the standard error of the mean (SEM) and n is equal to the number of independent replicates (determined in assays performed on different days). […] SEM is only calculated when […] or greater. Means are expressed as geometric means with the standard error of the mean (SEM) and the number of replicates (n) indicated in parentheses.

T1 sequence (P43220 24-463): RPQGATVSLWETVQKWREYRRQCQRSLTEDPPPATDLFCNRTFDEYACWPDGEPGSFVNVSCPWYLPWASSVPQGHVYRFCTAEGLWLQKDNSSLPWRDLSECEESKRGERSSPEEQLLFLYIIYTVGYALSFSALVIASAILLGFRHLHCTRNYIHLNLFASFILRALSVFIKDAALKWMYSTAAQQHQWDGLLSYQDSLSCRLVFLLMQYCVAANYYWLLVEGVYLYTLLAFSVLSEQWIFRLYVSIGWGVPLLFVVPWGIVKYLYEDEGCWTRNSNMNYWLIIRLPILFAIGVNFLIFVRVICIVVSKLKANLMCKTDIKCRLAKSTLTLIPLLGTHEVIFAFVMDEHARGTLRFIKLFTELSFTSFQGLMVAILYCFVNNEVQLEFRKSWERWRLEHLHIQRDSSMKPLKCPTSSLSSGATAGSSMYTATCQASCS

Row | SMILES | EC50 [1] [nM] | Ki (human GIPR) [nM]
1 | CC[C@H](C)[C@H](NC(=O)[C@H](CO)NC(=O)[C@H](Cc1ccc(O)cc1)NC(=O)[C@H](CC(=O)O)NC(=O)[C@H](CO)NC(=O)[C@@H](NC(=O)[C@H](Cc1ccccc1)NC(=O)[C@@H](NC(=O)CNC(=O)[C@H](CCC(=O)O)NC(=O)[C@@H](C)NC(=O)[C@@H](N)Cc1ccc(O)cc1)[C@@H](C)O)[C@@H](C)CC)C(=O)N[C@@H](CC(C)C)C(=O)N[C@@H](CC(C)C)C(=O)N[C@@H](CC(=O)O)C(=O)N[C@@H](CCCCN)C(=O)N[C@@H](CCCCNC(=O)COCCOCCNC(=O)COCCOCCNC(=O)CC[C@H](NC(=O)CCCCCCCCCCCCCCCCCCC(=O)O)C(=O)O)C(=O)N[C@@H](C)C(=O)N[C@@H](CCC(N)=O)C(=O)NC(C)(C)C(=O)N[C@@H](CC(=O)O)C(=O)N[C@@H](Cc1ccccc1)C(=O)N[C@H](C(=O)N[C@@H](CC(N)=O)C(=O)N[C@@H](Cc1c[nH]c2ccccc12)C(=O)N[C@@H](CC(C)C)C(=O)N[C@@H](CC(C)C)C(=O)N[C@@H](C)C(=O)N[C@@H](CCC(N)=O)C(=O)NCC(=O)N1CCC[C@H]1C(=O)N[C@@H](CO)C(=O)N[C@@H](CO)C(=O)NCC(=O)N[C@@H](C)C(=O)N1CCC[C@H]1C(=O)N1CCC[C@H]1C(=O)N1CCC[C@H]1C(=O)N[C@@H](CO)C(N)=O)C(C)C [Example 1] | > 5000 | 0.0667
2 | CC[C@H](C)[C@H](NC(=O)[C@H](CO)NC(=O)[C@H](Cc1ccc(O)cc1)NC(=O)[C@H](CC(=O)O)NC(=O)[C@H](CO)NC(=O)[C@@H](NC(=O)[C@H](Cc1ccccc1)NC(=O)[C@@H](NC(=O)CNC(=O)[C@H](CCC(=O)O)NC(=O)[C@@H](C)NC(=O)[C@@H](N)Cc1ccc(O)cc1)[C@@H](C)O)[C@@H](C)CC)C(=O)N[C@@H](CC(C)C)C(=O)N[C@@H](CC(C)C)C(=O)N[C@@H](CC(=O)O)C(=O)N[C@@H](CCCCN)C(=O)N[C@@H](CCCCNC(=O)COCCOCCNC(=O)COCCOCCNC(=O)CC[C@H](NC(=O)CCCCCCCCCCCCCCCCC(=O)O)C(=O)O)C(=O)N[C@@H](C)C(=O)N[C@@H](CCC(N)=O)C(=O)NC(C)(C)C(=O)N[C@@H](CC(=O)O)C(=O)N[C@@H](Cc1ccccc1)C(=O)N[C@H](C(=O)N[C@@H](CC(N)=O)C(=O)N[C@@H](Cc1c[nH]c2ccccc12)C(=O)N[C@@H](CC(C)C)C(=O)N[C@@H](CC(C)C)C(=O)N[C@@H](C)C(=O)N[C@@H](CCC(N)=O)C(=O)NCC(=O)N1CCC[C@H]1C(=O)N[C@@H](CO)C(=O)N[C@@H](CO)C(=O)NCC(=O)N[C@@H](C)C(=O)N1CCC[C@H]1C(=O)N1CCC[C@H]1C(=O)N1CCC[C@H]1C(=O)N[C@@H](CO)C(N)=O)C(C)C [Example 2] | > 5000 | 0.0373
3 | CC[C@H](C)[C@H](NC(=O)[C@H](Cc1ccccc1)NC(=O)[C@@H](NC(=O)CNC(=O)[C@H](CCC(=O)O)NC(=O)C(C)(C)NC(=O)[C@@H](N)Cc1ccc(O)cc1)[C@@H](C)O)C(=O)N[C@@H](CO)C(=O)N[C@@H](CC(=O)O)C(=O)N[C@@H](Cc1ccc(O)cc1)C(=O)N[C@@H](CO)C(=O)N[C@H](C(=O)N[C@@](C)(CC(C)C)C(=O)N[C@@H](CC(C)C)C(=O)N[C@@H](CC(=O)O)C(=O)N[C@@H](CCCCN)C(=O)N[C@@H](CCCCNC(=O)COCCOCCNC(=O)COCCOCCNC(=O)CC[C@H](NC(=O)CCCCCCCCCCCCCCCCCCC(=O)O)C(=O)O)C(=O)N[C@@H](Cc1c[nH]cn1)C(=O)N[C@@H](CCC(N)=O)C(=O)NC(C)(C)C(=O)N[C@@H](CC(=O)O)C(=O)N[C@@H](Cc1ccccc1)C(=O)N[C@H](C(=O)N[C@@H](CCC(=O)O)C(=O)N[C@@H](Cc1ccncc1)C(=O)N[C@@H](CC(C)C)C(=O)N[C@@H](CC(C)C)C(=O)N[C@@H](CCC(=O)O)C(=O)N[C@@H](C)C(=O)NCC(=O)N1CCC[C@H]1C(=O)N[C@@H](CO)C(=O)N[C@@H](CO)C(=O)NCC(=O)N[C@@H](C)C(=O)N1CCC[C@H]1C(=O)N1CCC[C@H]1C(=O)N1CCC[C@H]1C(=O)N[C@@H](CO)C(N)=O)C(C)C)[C@@H](C)CC [Example 3] | > 5000 | 0.0525
4 | CC[C@H](C)[C@H](NC(=O)[C@H](Cc1ccccc1)NC(=O)[C@@H](NC(=O)CNC(=O)[C@H](CCC(=O)O)NC(=O)C(C)(C)NC(=O)[C@@H](N)Cc1ccc(O)cc1)[C@@H](C)O)C(=O)N[C@@H](CO)C(=O)N[C@@H](CC(=O)O)C(=O)N[C@@H](Cc1ccc(O)cc1)C(=O)N[C@@H](CO)C(=O)N[C@H](C(=O)N[C@@](C)(CC(C)C)C(=O)N[C@@H](CC(C)C)C(=O)N[C@@H](CC(=O)O)C(=O)N[C@@H](CCCN)C(=O)N[C@@H](CCCCNC(=O)COCCOCCNC(=O)COCCOCCNC(=O)CC[C@H](NC(=O)CCCCCCCCCCCCCCCCCCC(=O)O)C(=O)O)C(=O)N[C@@H](Cc1c[nH]cn1)C(=O)N[C@@H](CCC(N)=O)C(=O)NC(C)(C)C(=O)N[C@@H](CC(=O)O)C(=O)N[C@@H](Cc1ccccc1)C(=O)N[C@H](C(=O)N[C@@H](CCC(=O)O)C(=O)N[C@@H](Cc1ccncc1)C(=O)N[C@@H](CC(C)C)C(=O)N[C@@H](CC(C)C)C(=O)N[C@@H](CCC(=O)O)C(=O)N[C@@H](C)C(=O)NCC(=O)N1CCC[C@H]1C(=O)N[C@@H](CO)C(=O)N[C@@H](CO)C(=O)NCC(=O)N[C@@H](C)C(=O)N1CCC[C@H]1C(=O)N1CCC[C@H]1C(=O)N1CCC[C@H]1C(=O)N[C@@H](CO)C(N)=O)C(C)C)[C@@H](C)CC [Example 4] | > 5000 | 0.062
